The Kinase Knowledgebase extract (Sharma et al. 2016)

The compounds below were run against EGFR (UniProt P00533).
Chain of EGFR (P00533 whole entry, looked up): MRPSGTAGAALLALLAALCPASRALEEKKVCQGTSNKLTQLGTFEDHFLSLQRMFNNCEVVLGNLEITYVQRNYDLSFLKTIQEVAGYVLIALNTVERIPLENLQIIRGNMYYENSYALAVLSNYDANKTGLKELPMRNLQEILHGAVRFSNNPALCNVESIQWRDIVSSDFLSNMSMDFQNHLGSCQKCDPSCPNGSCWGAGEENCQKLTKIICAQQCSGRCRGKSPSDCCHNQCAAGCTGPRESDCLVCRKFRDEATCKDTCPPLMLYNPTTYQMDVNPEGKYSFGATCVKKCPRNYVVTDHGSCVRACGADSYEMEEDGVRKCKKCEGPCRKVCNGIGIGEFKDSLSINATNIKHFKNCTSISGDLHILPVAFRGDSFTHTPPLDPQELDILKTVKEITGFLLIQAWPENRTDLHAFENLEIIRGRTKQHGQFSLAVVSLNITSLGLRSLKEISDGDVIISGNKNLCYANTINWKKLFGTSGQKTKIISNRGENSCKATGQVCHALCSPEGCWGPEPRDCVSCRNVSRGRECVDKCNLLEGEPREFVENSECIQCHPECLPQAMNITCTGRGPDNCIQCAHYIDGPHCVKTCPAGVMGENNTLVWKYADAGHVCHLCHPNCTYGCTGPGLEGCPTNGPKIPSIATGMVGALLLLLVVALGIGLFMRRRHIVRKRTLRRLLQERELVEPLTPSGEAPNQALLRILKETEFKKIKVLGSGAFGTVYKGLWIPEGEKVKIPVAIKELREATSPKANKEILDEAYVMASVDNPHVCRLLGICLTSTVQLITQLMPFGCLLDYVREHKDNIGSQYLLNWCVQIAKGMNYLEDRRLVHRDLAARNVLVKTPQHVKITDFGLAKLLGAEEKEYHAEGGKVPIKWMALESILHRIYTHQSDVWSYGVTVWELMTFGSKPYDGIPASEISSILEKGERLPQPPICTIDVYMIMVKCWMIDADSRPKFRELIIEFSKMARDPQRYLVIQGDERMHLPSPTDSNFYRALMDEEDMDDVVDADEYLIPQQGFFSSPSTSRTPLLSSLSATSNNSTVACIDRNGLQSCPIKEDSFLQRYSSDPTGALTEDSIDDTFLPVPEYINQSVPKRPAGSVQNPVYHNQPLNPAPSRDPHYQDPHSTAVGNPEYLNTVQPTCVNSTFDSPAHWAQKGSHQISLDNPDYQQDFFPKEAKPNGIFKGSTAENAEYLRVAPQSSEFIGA
For `O=C1C(c2ccncc2)Cc2cnc(Nc3ccccc3)nc2N1c1ccccc1` (centres undefined), the IC50 was < 10 µM.
With `COc1cc(OC)cc(C2Cc3cnc(Nc4ccccc4)nc3N(c3ccccc3)C2=O)c1` (centres undefined) the IC50 was < 10 µM.
With `O=C1C(c2c(Cl)cccc2Cl)Cc2cnc(Nc3ccccc3)nc2N1c1ccccc1` (centres undefined) the IC50 was < 10 µM.
In the case of `O=C1C(c2cccnc2)Cc2cnc(Nc3ccccc3)nc2N1c1ccccc1` (centres undefined), the IC50 is reported as < 10 µM.
`COc1ccc(C2Cc3cnc(Nc4cccnc4)nc3N(CC3CC3)C2=O)cc1` (centres undefined) was tested, and the IC50 was < 10 µM.
`Cc1ccccc1C1Cc2cnc(Nc3ccccc3)nc2N(c2ccccc2)C1=O` (centres undefined) was tested, and the IC50 was < 10 µM.
For `COc1ccccc1C1Cc2cnc(Nc3ccccc3)nc2N(c2ccccc2)C1=O` (centres undefined), the IC50 was < 10 µM.
With `COc1ccc(C2Cc3cnc(Nc4ccccc4)nc3N(c3ccccc3)C2=O)cc1` (centres undefined) the IC50 was < 10 µM.
For `O=C1C(c2ccccc2)Cc2cnc(Nc3ccccc3)nc2N1c1ccccc1` (centres undefined), the IC50 was < 10 µM.
For `COc1ccc(C2Cc3cnc(Nc4ccccc4)nc3N(CC(C)C)C2=O)cc1` (centres undefined), the IC50 was < 10 µM.
With `O=C1C(c2cc(C(F)(F)F)cc(C(F)(F)F)c2)Cc2cnc(Nc3ccccc3)nc2N1c1ccccc1` (centres undefined) the IC50 was > 10 µM.
`COc1ccc(OC)c(C2Cc3cnc(Nc4ccccc4)nc3N(c3ccccc3)C2=O)c1` (centres undefined) was tested, and the IC50 was < 10 µM.
For `COc1ccc(C2Cc3cnc(Nc4ccc(OC)nc4)nc3N(c3ccccc3)C2=O)cc1` (centres undefined), the IC50 was < 10 µM.
With `COc1ccc(C2Cc3cnc(Nc4ccccc4)nc3N(c3ccccc3)C2=O)cc1OC` (centres undefined) the IC50 was > 10 µM.
